Assay results from patent US4485113A (priority 1979, dated 1984).

Key:
in vivo = settings: rat, po
rat = settings: in vivo, po

SMILES | LD50 (in vivo) [mg/kg] | A.O. Rat. LD50 (rat) [mg/kg]
CN(SC(C)(C)C#N)C(=O)ON=C1CSCCS1 [XXVI, 2-[[O--[N--methyl-N--(2-cyano-2-propanesulfenyl)carbamoyl]oximino]]-1,4-dithiane] | 40 | 
CC1OCSC1=NOC(=O)N(C)SSC(C)(C)C#N (centres unmarked) [XXXIV, 5-Methyl-4-[[O--[N--methyl-N--(2-cyano-2-propanethiosulfenyl)carbamoyl]oximino]]-1,3-oxathiolane] | 14 | 
CC(=NOC(=O)N(C)SC(C)(C)C#N)SCCC#N [XXIV, 1-(2-Cyanoethylthio)acetaldehyde O--[N--methyl-N--(2-cyano-2-propanesulfenyl)carbamoyl]oxime] | 14.1 | 
CC(=NOC(=O)N(C)SSC(C)(C)C#N)SC(C)C [XXIX, 1-Isopropylthioacetaldehyde O--[N-- methyl-N--(2-cyano-2-propanethiosulfenyl)carbamoyl]oxime] | 18 | 
CSC(C)=NOC(=O)N(C)SC(C)(C)C#N [X, 1-Methylthioacetaldehyde O-[N-methyl-N-(2-cyano-2-propanesulfenyl)carbamoyl]oxime] | 127 | 
CNC(=O)ON=C(C)SC [Compound 1] |  | 49
CN(SC(C)(C)CCl)C(=O)ON=C1SC(C)(C)C(=O)N1C [XIII, 3,5,5-Trimethyl-2-[[O--[N--methyl-N--(2-chloromethyl-2-propanesulfenyl)carbamoyl]oximino]]-4-thiazolidinone] | 343 | 
CN(SSC(C)(C)C#N)C(=O)ON=C1CSCCS1 [XXXV, 2-[[O--[N--methyl-N--(2-cyano-2-propanethiosulfenyl)carbamoyl]oximino]]-1,4-dithiane] | 32 | 
CSC(C)=NOC(=O)N(C)SSC(C)(C)C#N [XXVII] | 127 | 
CC(=NOC(=O)N(C)SSC(C)(C)C#N)SCCC#N [XXVIII, 1-(2-Cyanoethylthio)acetaldehyde O--[N--methyl-N--(2-cyano-2-propanethiosulfenyl)carbamoyl]oxime] | 28 | 
CC(=NOC(=O)N(C)SC(C)(C)C#N)SC(C)C [XXIII, 1-Isopropylthioacetaldehyde O--[N--methyl-N--(2-cyano-2-propanesulfenyl)carbamoyl]oxime] | 20 | 
CN(SC(C)(C#N)CCl)C(=O)ON=C1SC(C)(C)C(=O)N1C (centres unmarked) [XIX, 3,5,5-Trimethyl-2-[[O--[N--methyl-N--(1-chloro-2-cyano-2-propanesulfenyl)carbamoyl]oximino]]-4-thiazolidinone] | 320 | 
CN(SSC(C)(C)C#N)C(=O)ON=CC(C)(C)C#N [XXXII, 2-Cyano-2-methylpropionaldehyde O--[N--methyl-N--(2-cyano-2-propanethiosulfenyl)carbamoyl]oxime] | 14 | 
CNC(=O)ON=C(C)SC(C)C [Compound 3] |  | 8
